# Measured values reported in patent US20090247495A1, “CU[…] AND USES THEREOF” (priority 2007, published 2009).
# Key:
# Panc-1 = experiment: MTT cell cytotoxicity assay, Panc-1; type: cell-based; conditions: Homo sapiens
# Experimental: Three human pancreatic cancer cell lines (Panc-1, Panc 02.13, Panc 10.05) were purchased from American Type Culture Collection (ATCC, Manassas, Va., USA). Panc 02.13 and Panc 10.05 were grown in RPMI 1640 medium supplemented with 15% FBS, 4.5 g/L glucose, 10 mM HEPES, and 1.0 mM sodium pyruvate and 10 Units/ml human insulin; while PANC-1 was grown in Dulbecco's modified Eagle's medium supplemented with 10% FBS. They were maintained in a humidified 5% CO2 atmosphere at 37° C. and the culture medium was changed once in 2 days.
# The cytotoxic effect of CuB on these three cancer cell lines were determined using MTT (3-[4,5-dimethylthiazol-2-yl]-2,5-diphenyl tetrazolium bromide) labeled cell cytotoxicity assay. A total of 1×10^4 cells were seeded into a 96-well plate for 24 hours prior to cucurbitacin B (CuB) treatment. They were then treated with different dosages of CuB for 48 hours. After the treatment, 20 μl of MTT (5 mg/ml) was added to each well and incubated for 4 hrs. Then the medium was discarded and 100 μl of dimethyl sulfoxide was added. The absorbance at 570 nm was then measured by FLUOstar OPTIMA equipment (BMG, LABTECH GmbH, Germany). The percentage of inhibition against different dosages of CuB were plotted using the Prism software and the 50% inhibition concentration (IC50) were obtained. […]
# Erk1/2 = experiment: Western blot of Erk1/2 in HepG2, HT29 and MCF-7 cells; type: cell-based, human
# Experimental: The human cancer cells line were serum starved for 18 hours prior to CuB/CuD treatment. Cells were incubated in a 6-well plate filled with 5 ml growth medium (RPMI with 0.2% FBS and 1% PS) at the cell density of 1×10^5 cells/ml, in the presence or absence of two different dosages of CuB/CuD for various time intervals. The drug treatment was terminated by centrifugation at 1,500 rpm for 5 minutes and the cells were rinsed twice with phosphate-buffered saline and lysed at 4° C. in a lysis buffer containing 50 mM Tris-HCl, pH7.5, 100 mM NaCl, 5 mM EDTA, 40 mM NaP2O7, 1% Triton X-100, 1 mM dithiothreitol, 200 μM Na3VO4, 100 uM phenylmethysufonyl fluoride, 2 μg/ml leupeptin, 4 μg/ml aprotinin and 0.7 μg/ml pepstatin. The insoluble protein lysate were removed by centrifugation for 10 minutes at 13,000 rpm. Fifteen micrograms of protein lysate was resolved using 10% SDS-polyacryamide gel electrophoresis (PAGE) and then subjected to western blot anaylsis. Western blots were performed with anti-Stat3, anti-Erk1/2 and anti-hsp27 antibodies specific for phosphor- and total Stat3, Erk and hsp27 proteins. The protein bands were then visualized with the Enhanced Chemiluminescence Plus (ECL Plus) detection system (Amersham). • 6.2.8.1 Inhibition Effect Cucurbitacin B/Cucurbitacin D on Stat3 Activation in HepG2 and HT29 Cells
# Cells were incubated either with CuB or CuD (25 ug/ml or the dosage of IC50) for various time intervals (5, 10 or 30 mins, 1 or 4 hours). The Stat3 activation was detected by western blot.
# HL60 and U937 cells = experiment: Cytoskeletal staining (F-actin, confocal); type: cell-based, human; conditions: two days
# Experimental: HL60 and U937 cells were incubated with cucurbitacin B for two days at 37° C. Then the cells were centrifuged and fixed in 4% paraformaldehyde, permeabilized with 0.1% Triton X-100 in PBS, and incubated with FITC-conjugated anti-β-tubulin antibody, followed by rhodamine-phalloidin to detect filamentous F-actin. Confocal images were collected on a Leica microscope. […] Untreated HL 60 and U937 cells were depicted in FIGS. 15A and 15C, and cultured HL 60 and U937 cells were depicted in FIGS. 15B and 15D. • 6.2.8 Cucurbitacin B and Cucurbitacin D Inhibited Stat3 Activation and Stimulated Erk and Hsp27 Activation in HepG2, HT29 and MCF-7 Cells
# [1] = tested on: HepG2(liver), HT29(colon) and MCF-7(breast); experiment: MTT cell cytotoxicity assay, three cancer cell lines; type: cell-based; conditions: Homo sapiens; 48 hours; range over the three cell lines
# Experimental: Three human cancer cell lines (HepG2(liver), HT29(colon) and MCF-7(breast)) were purchased from American Type Culture Collection (ATCC, Manassas, Va., USA). The cells were cultured in RPMI 1640 medium supplemented with 5% (v/v) fetal bovine serum (FBS) and 100 units/ml penicillin and streptomycin (Invitrogen Life Technologies) in a humidified 5% CO2 atmosphere at 37° C.
# The cytotoxic effect of CuB and CuD on these three cancer cell lines were determined using MTT (3-[4,5-dimethylthiazol-2-yl]-2,5-diphenyl tetrazolium bromide) labeled cell cytotoxicity assay. A total of 1×10^4 cells were seeded into a 96-well plate for 24 hours prior to cucurbitacin B (CuB) or cucurbitacin D (CuD) treatment. They were then treated with different dosages of CuB/CuD for 48 hours. After the treatment, 20 μl of MTT (5 mg/ml) was added to each well and incubated for 4 hrs. Then the medium was discarded and 100 μl of dimethyl sulfoxide was added. The absorbance at 570 nm was then measured by using FLUOstar OPTIMA equipment (BMG, LABTECH GmbH, Germany). The percentage of inhibition against different dosages of CuB/CuD were plotted using the Prism software and the 50% inhibition concentration (IC50) were obtained.
compound,measurement,setting,value
CC(=O)OC(C)(C)/C=C/C(=O)[C@](C)(O)C1[C@H](O)C[C@@]2(C)C3CC=C4C(C[C@H](O)C(=O)C4(C)C)[C@]3(C)C(=O)C[C@]12C (stereo partly shown) [cucurbitacin B],GI50,"Panc-1; MTT, 48 hours",12.4 µM
same,IC50,Panc-1; read-out: IC50 (dose used for western blot),0.8 µM
same,expression of Erk1/2,"Erk1/2; HT29, 5 minutes of treatment",up-regulated the expression of Erk1/2 significantly
same,expression of Erk1/2,"Erk1/2; HepG2, 30 minutes of treatment",up-regulated the expression of Erk1/2 significantly
same,Erk activation,"Erk1/2; MCF-7 cells, 5 minutes",significant Erk activation
same,effect on cytoskeletal network (F-actin),HL60 and U937 cells,rapid and improper polymerization of the F-actin network
same,IC50,[1],0.31 to 1.6 µg/mL
